From ChEMBL document CHEMBL1125729, “A cardioselective, hydrophilic N,N,N-trimethylethanaminium alpha-tocopherol analogue that reduces myocardial infarct size” (J Med Chem, 1991)

What was measured:
[1] = Partition coefficient (logD) (octanol/phosphate buffer); assay type: physicochemical
[2] = species: Rattus norvegicus; test: Compound was evaluated for prevention of spontaneous lipid peroxidation in rat brain homogenate.; assay type: functional
[3] = tested on: Rattus norvegicus; test: Total radioactivity 1 hour after intravenous administration of 1 mg/kg in rat blood.; assay type: functional
[4] = tested on: Rattus norvegicus; test: Total radioactivity 1 hour after intravenous administration of 1 mg/kg in rat heart.; assay type: functional
[5] = tested on: Rattus norvegicus; test: Total radioactivity 1 hour after intravenous administration of 1 mg/kg in rat skeletal muscle.; assay type: functional, Muscle tissue
[6] = Ratio of total radioactivity of blood to blood in rats.
[7] = Ratio of total radioactivity of heart tissue to blood in rats.; assay type: tissue-based
[8] = Ratio of total radioactivity of skeletal muscle to blood in rats.

logD [1]	IC50 [2]	Ratio [6]	Ratio [8]	SMILES	Total radioactivity [3]	Total radioactivity [4]	Total radioactivity [5]	Ratio [7]
-0.18	–	1	1.7	CC(=O)Oc1c(C)c(C)c2c(c1C)CCC(C)(CC[N+](C)(C)C)O2 (stereo unspecified)	0.11	2.28	0.19	20.7
1.56	–	1	1.5	CC(=O)Oc1c(C)c(C)c2c(c1C)CCC(C)(CCN(C)C)O2 (stereo unspecified)	0.18	0.28	0.27	1.6

The remaining lines, values behind:

SMILES	logD [1]	IC50 [2]	Ratio [6]	Ratio [8]	Total radioactivity [3]	Total radioactivity [4]	Total radioactivity [5]	Ratio [7]
Cc1c(C)c2c(c(C)c1O)CCC(C)(CCN(C)C)O2 (stereo unspecified)	1.15	0.5 µM	–	–	–	–	–	–
Cc1c(C)c2c(c(C)c1O)CCC(C)(C(=O)O)O2 (stereo unspecified) [TROLOX]	-1.02	12 µM	–	–	–	–	–	–
Cc1c(C)c2c(c(C)c1O)CC[C@@](C)(CCC[C@H](C)CCC[C@H](C)CCCC(C)C)O2 (racemic) [ALPHA-TOCOPHEROL]	–	12 µM	–	–	–	–	–	–
Cc1c(C)c2c(c(C)c1O)CCC(C)(CC[N+](C)(C)C)O2 (stereo unspecified)	-0.6	1.7 µM	–	–	–	–	–	–
